# Assays:
# [1] = solid residues analysis after shake-flask (DSC, FTIR-ATR); format: physicochemical; conditions: sediments after shake-flask in water and organic solvents, FTIR-ATR and literature
# Excerpt: The equilibrium in the solid-liquid saturated systems is governed not only by the properties of solvents but also by the solid state including polymorphic or pseudopolymorphic transformations as well as solvates formation. […] For this reason, the sediments collected after the shake-flask experiments for water and studied organic solvents were examined using differential scanning calorimetry (DSC) and Fourier transform infrared spectroscopy–attenuated total reflectance (FTIR-ATR) techniques. The detailed characteristics of solid residues were provided in supplementary materials (see Figures S5–S10). In the case of solvate formation or polymorphic transformation, the absorption band shifts on the IR spectra are often related to new hydrogen bonding patterns. In the case of DSC thermograms, new phases can be detected by observing additional signals due to the heat transfer associated with polymorphic transition or pseudo-polymorph transformations. […] This conclusion is in good accord with already reported observation. According to Ouyang et al. (2019) benzamide solid form is not altered in contact with such solvents as water, methanol, ethanol, 1-propanol, isopropanol, 1-butanol, isobutanol, methyl acetate, ethyl acetate, butyl acetate, acetonitrile and acetone. In the case of salicylamide, the only polymorphic transformation observed so far was with the use of high pressure. […]
# The solid residues obtained after “shake-flask” procedure were dried on air and used for IR spectrophotometric and DSC measurements. Infrared spectra were recorded using PerkinElmer (Waltham, MA, USA) spectrophotometer equipped with a diamond attenuated total reflection (ATR) device. DSC thermograms were recorded using DSC 6000 Perkin Elmer (Waltham, MA, USA) calorimeter (heating rate: 5 K/min, nitrogen flow: 20 mL/min) calibrated using indium and zinc reference standards provided by the manufacturer.
# [2] = shake-flask solubility in aqueous binary mixtures of DMSO, DMF and 4FM; format: physicochemical; conditions: aqueous 4FM mixture, 4FM mole fraction 0.6; room temperature (Figure 4)
# Description: In this study, the “shake-flask” procedure used in the previous studies was applied and it consists of the following steps. First, the mixtures (suspensions) containing saturated solution and undissolved solids were prepared in glass screw test tubes. Then the mixtures were incubated and agitated for 24 h at controlled temperature (298.15, 303.15, 308.15, or 313.15 K) and 60 rpm using Orbital Shaker ES-20/60 (Biosan, Riga, Latvia). At the next step, the temperature was still controlled, however, the agitation was turned off and suspensions were let to settle down for an hour. Then, the supernatant was filtrated using 0.22 μm PTFE syringe membrane filter. Nextly, 0.1 mL of the filtrate was diluted with 2 mL of methanol. The samples prepared in this way were protected against crystallization, as the concentration was low. 0.5 mL of the filtrate was used for density measurements. All equipment including automatic pipette tips, membrane filters, and syringes were preheated at the measurement temperature in order to avoid the solute precipitation. All “shake-flask” experiments were carried out in triplicate. The concentration in the samples was determined spectrophotometrically using the calibration curve method. […] All UV spectra were recorded using an A360 UV-VIS spectrophotometer (AOE Instruments, Shanghai, China).
# [3] = COSMO-RS solubility computation; conditions: acetic acid
SMILES,phase change of the solid in saturated solutions (polymorph / solvate) [1],molar fraction solubility (xS) [2] [molar fraction],mole fraction error of COSMO-RS computed solubility versus experiment [3] [%]
CCOc1ccccc1C(N)=O [ethenzamide],do not show a tendency to undergo phase changes,,
NC(=O)c1ccccc1 [benzamide],do not show a tendency to undergo phase changes,,
NC(=O)c1ccccc1O [salicylamide],do not show a tendency to undergo phase changes,0.379,−60

# — article PMC9144492, “New Screening Protocol for Effective Green Solvents Selection of Benzamide, Salicylamide and Ethenzamide” (Molecules, 2022)
